Experiment: Water solubility of catalyst

| Structure (SMILES) | Water solubility of catalyst |
| --- | --- |
| CCCCCCCCn1cc[n+](CCCCCCCC)c1/C([O-])=N\c1ccccc1 [modified imidazole F] | Insoluble |
| Cn1cc[n+](C)c1C(=O)[O-] [modified imidazole A, 1,3-dimethylimidazolium-2-carboxylate] | Soluble |
| CCCC[n+]1ccn(C)c1C(=O)[O-] [modified imidazole B] | Soluble |
| CCCCCCC[CH2][Sn](=[O])[CH2]CCCCCCC [Dioctyltin oxide, reference compound] | Insoluble |

More lines, now with the values ahead:

| Water solubility of catalyst | Structure (SMILES) |
| --- | --- |
| Insoluble | CCCCCCCC[n+]1ccn(C)c1/C([O-])=N\c1ccccc1 [modified imidazole E] |
| Soluble | Cn1cc[n+](C)c1.[Cl-] [reference compound] |
| Insoluble | Cn1cc[n+](C)c1/C([O-])=N\c1ccccc1 [modified imidazole C] |

Reference: US11639446B2, “Cationic electrodeposition coating composition” (KANSAI PAINT CO., LTD., priority 2017, dated 2023)
